This is an account of results in US5658943A, “Phenylalanine derivatives as endothelin antagonists” (Warner-Lambert Company, priority 1995, dated 1997).

The target in one assay is T1, recombinant human ETB R (Homo sapiens, UniProt P24530).
T1 construct: expressed in transfected cells; host or cells: CHO-K1 cells (membranes)
T1 sequence (P24530 27-442): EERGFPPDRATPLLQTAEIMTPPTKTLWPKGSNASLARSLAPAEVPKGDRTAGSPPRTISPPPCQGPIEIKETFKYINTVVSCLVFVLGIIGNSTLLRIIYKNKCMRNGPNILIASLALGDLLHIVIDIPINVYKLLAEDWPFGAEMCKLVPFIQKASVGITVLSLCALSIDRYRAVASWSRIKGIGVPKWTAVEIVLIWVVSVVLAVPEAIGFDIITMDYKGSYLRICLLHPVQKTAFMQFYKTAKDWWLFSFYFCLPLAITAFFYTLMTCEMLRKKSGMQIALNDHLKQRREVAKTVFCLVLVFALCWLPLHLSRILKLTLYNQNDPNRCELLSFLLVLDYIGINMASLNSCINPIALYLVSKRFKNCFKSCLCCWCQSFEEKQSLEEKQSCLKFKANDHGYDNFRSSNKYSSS
As to the kind of experiment: [125I]-ET-1 radioligand binding, CHO-K1 cells expressing recombinant human ETB R (HERBA-B). The conditions noted are these: [125I]-ET-1 (40 pM), 2 hours at 37° C.

Assay [1] has as its target T2, rabbit renal artery vascular smooth muscle cells (ETA) (Oryctolagus cuniculus, UniProt A5A8K3).
T2 construct: endogenous in cells; host or cells: cultured rabbit renal artery vascular smooth muscle cells (membranes)
T2 sequence (A5A8K3 21-427): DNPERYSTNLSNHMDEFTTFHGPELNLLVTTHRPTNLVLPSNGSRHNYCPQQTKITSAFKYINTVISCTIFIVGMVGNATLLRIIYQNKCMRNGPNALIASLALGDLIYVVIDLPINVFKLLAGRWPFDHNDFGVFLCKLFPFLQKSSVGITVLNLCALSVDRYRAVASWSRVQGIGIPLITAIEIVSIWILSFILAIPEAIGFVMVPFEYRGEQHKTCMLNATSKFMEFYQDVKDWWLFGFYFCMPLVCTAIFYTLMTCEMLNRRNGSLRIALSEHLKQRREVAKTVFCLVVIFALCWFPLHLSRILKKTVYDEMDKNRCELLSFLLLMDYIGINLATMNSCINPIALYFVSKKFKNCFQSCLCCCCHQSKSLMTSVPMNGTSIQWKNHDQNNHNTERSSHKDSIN
As to the kind of experiment: [125I]-ET-1 radioligand binding, rabbit renal artery vascular smooth muscle cells (ERBA-A). The conditions noted are these: [125I]-ET-1 (40 pM), 2 hours at 37° C. As to the method: (§1) The compounds of Formula I are valuable antagonists of endothelin.
(§2) The following cultured cells were used in binding experiments: rabbit renal artery vascular smooth muscle cells (ERBA-A), Ltk-cells expressing recombinant human ETA R (HERBA-A), and CHO-K1 cells expressing recombinant human ETB R (HERBA-B).
(§3) Membranes were prepared from cultured cells by lysing cells in cold lysis buffer (5 mM HEPES, 2 mM EDTA, pH 7.4) and homogenizing with a Dounce "A" homogenizer. The homogenate was centrifuged at 30,000×g for 20 minutes at 4° C. Membrane pellets were suspended in cold buffer containing 20 mM Tris, 2 mM EDTA, 200 μM Pefabloc, 10 μM phosphoramidon, 10 μM leupeptin, 1 μM pepstatin at pH 7.4 and frozen at -80° C. until use. Membranes were thawed and homogenized with a Brinkmann Polytron then diluted in tissue buffer containing 20 mM Tris, 2 mM EDTA, 200 μM Pefabloc and 100 μM bacitracin (pH 7.4). Radioligand and competing ligands were prepared in binding buffer containing 20 mMTris, 2 mM EDTA, and 0.1% BSA.
(§4) Competing binding assays were initiatedby combining membranes, [125I]-ET-1 (40 pM) and the competing ligand in a final volume of 250 μL and incubating for 2 hours at 37° C. The assay was terminated by filtration over Whatman GF/B filters which were presoaked with 50 mM Tris, pH 7.4 containing 0.2% BSA and 100 μM bacitracin. Nonspecific binding was defined as binding in the presence of 100 nMET-1.

A further assay concerns the target T3, recombinant human ETA R (Homo sapiens, UniProt P25101).
T3 construct: expressed in transfected cells; host or cells: Ltk- cells (membranes)
T3 sequence (P25101 21-427): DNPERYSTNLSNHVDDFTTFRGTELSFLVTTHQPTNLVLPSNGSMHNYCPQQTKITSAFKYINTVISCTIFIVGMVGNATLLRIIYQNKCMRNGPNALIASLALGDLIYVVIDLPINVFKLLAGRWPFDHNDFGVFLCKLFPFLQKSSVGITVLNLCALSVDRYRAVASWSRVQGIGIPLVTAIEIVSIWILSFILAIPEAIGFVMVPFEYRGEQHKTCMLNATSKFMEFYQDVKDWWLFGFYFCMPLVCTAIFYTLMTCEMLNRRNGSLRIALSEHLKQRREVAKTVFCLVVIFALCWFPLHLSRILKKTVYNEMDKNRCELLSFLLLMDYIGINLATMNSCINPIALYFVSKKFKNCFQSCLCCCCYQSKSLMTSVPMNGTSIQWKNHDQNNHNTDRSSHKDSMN
As to the kind of experiment: [125I]-ET-1 radioligand binding, Ltk- cells expressing recombinant human ETA R (HERBA-A). The conditions noted are these: [125I]-ET-1 (40 pM), 2 hours at 37° C. The procedure: as §1, §2, §3, §4

Another assay deals with rat cerebellum (ETB). Put plainly: inhibition of ET-1 stimulated arachidonic acid release (AAR-B). The format is cell-based. The note with it: ET-1 (0.3 nM) stimulated [3H]arachidonic acid release, 30 minutes.
Excerpt: as §1

The test system of assay [2] is endothelin receptor. The conditions noted are these: rats; cited from earlier work.
The subject of assay [3] is endothelin receptor. The note with it: rats; cited from earlier work. This is another data set of the same source.
In another assay the test system is ETB. The note with it: isolated, endothelium-intact porcine pulmonary arteries; cited from earlier work.
For assay [4], the system named is ETA. The note with it: in vivo; cited from earlier work.
The subject of another assay is ET receptor. The note with it: allergic sheep; cited from earlier work.
In assay [5] the test system is ETA. The conditions noted are these: mouse model of endotoxic shock; cited from earlier work.
In the next assay the test system is ETA /ETB receptor. The conditions noted are these: in vivo; cited from earlier work.

pIC50: −log10 of the molar value. Where a SMILES comes first, the peptide text is derived from it. [ ]: non-standard residue; d: D form.

Consider `COc1cccc(CC(NCC(c2ccccc2)c2ccccc2)C(=O)O)c1OCc1ccccc1` (racemic) [Example 16, (R,S)-3-(2-Benzyloxy-3-methoxyphenyl)-2-(2,2-diphenyl-ethylamino)propionic acid], for which the pIC50 – broadly, −log10 of the IC50, conventionally taken in molar units – on recombinant human ETB R is 5.01; in [1], 5.15.
Regarding `COc1cccc(CC(NC(=O)C(c2ccccc2)c2ccccc2)C(=O)O)c1Oc1ccc([N+](=O)[O-])cc1` (racemic) [Example 8, (R,S)-2-Diphenylacetylamino-3-[3-method-2-(4-nitro-phenol)phenyl]propionicacid], the pIC50 is 4.77 in assay [1] and less than 4.60 at recombinant human ETA R.
Regarding `COc1cccc(CC(NC(=O)C(c2ccccc2)c2ccccc2)C(=O)O)c1OCc1ccccc1` (racemic) [Example 3, (R,S)-N-(Diphenylacetyl)-3-methoxy-2-(phenylmethoxy)-phenylalanine], the pIC50 is 5.70 at recombinant human ETB R, 5.47 on recombinant human ETA R and 5.00 in the assay with rat cerebellum (ETB).
Take `COc1ccc(C(c2ccc3c(c2)OCO3)C(NC(=O)C(c2ccccc2)c2ccccc2)C(=O)O)cc1OCc1ccccc1` (racemic) [Example 23, (R,S: R,S)-3-Benzo[1,3]dioxol-5-yl-3-(3-benzyloxy-4-methoxyphenyl)-2-diphenyl-acetylaminopropionic acid]: the results for the pIC50 on recombinant human ETB R and at recombinant human ETA R were 4.92 and 4.57, respectively.
With `COc1cccc(SC(c2cccc(OC)c2)C(NC(=O)C(c2ccccc2)c2ccccc2)C(=O)O)c1` (racemic) [Example 35, (R,S; R,S)-2-Diphenylacetylamino-3-(3-methoxyphenyl)-3-(3-methoxyphenyl-sulfanyl)propionic acid], the values for the pIC50 at recombinant human ETB R and on recombinant human ETA R were 5.52 and 5.74, respectively.
On to `COc1cccc(CC(NC(=O)C(c2ccccc2)C2CCCC2)C(=O)O)c1OCc1ccccc1` (racemic) [Example 10, (R,S; R,S)-3-(2-Benzyloxy-3-methoxyphenyl)-2-(2-cyclopentyl-2-phenyl-acetylamino)propionic acid], for which the pIC50 at recombinant human ETB R was 5.66; in assay [1] it was 4.64.
In the case of `CC(C)c1ccc(S(=O)(=O)NC(C(=O)O)C(c2ccc3c(c2)OCO3)c2ccc3c(c2)OCO3)cc1` (racemic) [Example 40, (R,S)-3,3-Bis-benzo[1,3]dioxol-5-yl-2-(4-isopropyl-benzenesulfonylamino)-propionic acid], the pIC50 is 4.80 at recombinant human ETB R and 5.40 on recombinant human ETA R.
Take `O=C(NC(C(=O)O)C(c1ccc2c(c1)OCO2)c1ccc2c(c1)OCO2)C(c1ccccc1)c1ccccc1` (centres unmarked) [Example 21, 3,3 -Bis-benzo[1,3]dioxol-5-yl-2-diphenylacetylamino-propionic acid]: the pIC50 at recombinant human ETB R is 5.60; on recombinant human ETA R it was 5.89.
As to `COc1cccc(Oc2c(NS(=O)(=O)c3ccc(C(C)(C)C)cc3)ncnc2OCCO)c1` [RO 46-2005], the “efficacy in model of acute renal ischemia” value in the assay on endothelin receptor [2] is given as “effective”. Further, the “efficacy in model of subarachnoid hemorrhage” value with endothelin receptor [3] is reported as “effective”.
As to `COc1cccc(CC(NC(=O)C(c2ccccc2)c2ccccc2)C(=O)O)c1OCCc1ccccc1` (racemic) [Example 4, (R,S)-2-Diphenylacetylamino-3-[3-methoxy-2-(2-phenyl-ethoxy)phenyl]propionic acid], the pIC50 on recombinant human ETB R is 6.00; in assay [1], 4.80; at recombinant human ETA R, 5.47; in the assay on rat cerebellum (ETB), 5.21.
For the compound ET[1,3,11,15-Ala], the vasorelaxation result in the assay on ETB is “caused vasorelaxation”.
`O=C(NC(C(=O)O)C(c1ccc2c(c1)OCO2)c1ccc2c(c1)OCO2)c1ccc2c(c1)OCO2` (racemic) [Example 38, (R,S)-2-[(Benzo[1,3]dioxole-5-carbonyl)-amino]-3,3-bis-benzo [1,3]dioxol-5-yl-propionic acid]: the values for the pIC50 on recombinant human ETB R and on recombinant human ETA R were 4.89 and 5.89, respectively.
Take `COc1cccc(CC(NC(=O)C(c2ccccc2)c2ccccc2)C(=O)O)c1OCCCc1ccccc1` (racemic) [Example 7, (R,S)-Diphenylacetylamino-3-[3-methoxy-2-(3-phenyl-propoxy)phenyl]propionicacid]: the pIC50 at recombinant human ETB R and on recombinant human ETA R was 5.03 each time.
On to `CC(C)C[C@@H]1NC(=O)[C@@H](C(C)C)NC(=O)[C@@H]2CCCN2C(=O)[C@@H](CC(=O)O)NC(=O)[C@@H](Cc2c[nH]c3ccccc23)NC1=O` [BQ-123] (cyclo(L[dW][dD]P[dV])), for which the “early cerebral vasospasm following subarachnoid hemorrhage” value with ETA [4] is on record as “prevent early cerebral vasospasm”. Also, the “ET-1 induced bronchoconstriction and tracheal smooth muscle contraction” value in the assay with ET receptor was “block”. Also, in the assay on ETA [5], the survival rate result is reported as “significantly increased”.
On to `CCCOc1ccc2c(c1)[C@@H](c1ccc(OC)cc1OCC(=O)O)[C@H](C(=O)O)[C@H]2c1ccc2c(c1)OCO2` [SB 209670], for which the “neointimal formation after angioplasty” value in the assay with ETA /ETB receptor is given as “reduced neointimal formation”.
As for `O=C(O)C(Cc1ccccc1OCc1ccccc1)NC(=O)C(c1ccccc1)c1ccccc1` (racemic) [Example 14, (R,S)-3-(2-Benzyloxyphenyl)-2-diphenylacetylamino-propionic acid], the pIC50 at recombinant human ETB R is 4.64; in assay [1] it was less than 4.60.
In the same order, the values of `COc1cccc(CC(NC(=O)N(c2ccccc2)c2ccccc2)C(=O)O)c1OCc1ccccc1` (racemic) [Example 5, (R,S)-3-(2Benzyloxy-3-methoxyphenyl)-2-(3,3-diphenyl-ureido) propionic acid] are 5.17 and 4.89.
In the same order, the values of `COc1cccc(CC(NC(=O)C(Cc2cccc3ccccc23)Cc2cccc3ccccc23)C(=O)O)c1OCc1ccccc1` (racemic) [Example 9, (R,S)-3-(2-Benzyloxy-3-methoxyphenyl)-2-(3-naphthalen-1-yl-2-naphthalen-1-ylmethylpropionylamino)propionic acid] are 5.66 and less than 4.60.
